Measurements as given in ChEMBL document CHEMBL1156829 (Proc Natl Acad Sci U S A, 2008).

How the values were obtained:
[1] = NOVARTIS: Cytotoxicity against human hepatocellular carcinoma cell line (Huh7); assay type: toxicity, cell-based, Huh-7; conditions: Huh7 cells (hepatocellular carcinoma cell line)
Plasmodium falciparum [2] = experiment: NOVARTIS: Inhibition of Plasmodium falciparum W2 (drug-resistant) proliferation in erythrocyte-based infection assay; assay type: functional, organism-based; conditions: Plasmodium falciparum, W2; read-out: EC50
Plasmodium falciparum [3] = experiment: NOVARTIS: Inhibition of Plasmodium falciparum 3D7 (drug-susceptible) proliferation in erythrocyte-based infection assay; assay type: functional, organism-based; conditions: Plasmodium falciparum, 3D7

| Structure (SMILES) | CC50 [1] | EC50 (Plasmodium falciparum [2]) | EC50 (Plasmodium falciparum [3]) |
| --- | --- | --- | --- |
| CCSC(Cl)=C(NC(=O)c1ccccc1)[P+](c1ccccc1)(c1ccccc1)c1ccccc1.[O-][Cl+3]([O-])([O-])[O-] | 32200 nM | 45.5 nM | 123 nM |
| CCC1CN2CCc3cc(OC)c(OC)cc3C2CC1CC1NCCc2cc(OC)c(OC)cc21 (centres undefined) | 23700 nM | 36 nM | 35.7 nM |
| CCCCCCc1cc(O)c2c(c1)OC(C)(C)C1=C2CCN(C)C1 | 20600 nM | 31.3 nM | 48.4 nM |
| CC(C)C(=O)NC(Nc1ccc([N+](=O)[O-])cc1)C(Cl)(Cl)Cl (centres undefined) | 68300 nM | 104 nM | 195 nM |
| CC(=O)O[C@H]1C(=O)[C@@]2(C)C([C@H](OC(=O)c3ccccc3)[C@]3(O)C[C@H](OC(=O)[C@@H](O)[C@@H](NC(=O)c4ccccc4)c4ccccc4)C(C)=C1C3(C)C)[C@]1(OC(C)=O)CO[C@@H]1C[C@@H]2O (some centres undefined) | > 100000 nM | 152 nM | 658 nM |
| Cc1ncc([N+](=O)[O-])n1CCOC(=O)NC(Nc1ccc(Br)cc1)C(Cl)(Cl)Cl (centres undefined) | > 100000 nM | 152 nM | 229 nM |
| COC(=O)C1=C(C)NC2=C(C(=O)CC(c3ccc(Cl)cc3)C2)C1c1ccccc1 (centres undefined) | > 100000 nM | 152 nM | 342 nM |
| Cn1c(C(=O)c2cccc3ccccc23)nc2ccccc21 | 21500 nM | 32.6 nM | 6.92 nM |
| COCCOC(=O)NCc1ccc(Nc2c(C(C)(C)C)nc3cnccn23)cc1 | > 10000 nM | 15.5 nM | 102 nM |
| Cc1cc(Cl)c(S(=O)(=O)N2CCSCC2)cc1OCC(=O)NC1CCCCC1 | > 100000 nM | 153 nM | 186 nM |
| C=CCNC(=S)N1CCc2c([nH]c3ccccc23)C1C(F)(F)F (centres undefined) | 70700 nM | 108 nM | 208 nM |
| COc1ccc(OC)c(-c2ccc(O)c(CN3CCCC(C)C3)c2)c1 (centres undefined) | 61000 nM | 94.5 nM | 131 nM |
| CCOc1cc(C2CC(=O)NC3=C2C(=O)CC(c2ccc(OC)c(OC)c2)C3)ccc1O (centres undefined) | > 100000 nM | 155 nM | 781 nM |
| CCN(CC)CCNc1ccnc2cc3ccccc3cc12 | 20300 nM | 31.3 nM | 28.6 nM |
| Cc1ccc(C)c(NC(=O)C2CCCN(c3nnc(N4CCCC4=O)s3)C2)c1 (centres undefined) | > 100000 nM | 154 nM | > 5750 nM |
| CCN1C(=O)N(CC)C(NNC(N)=S)C1NNC(N)=S (centres undefined) | > 100000 nM | 152 nM | 123 nM |
| CSc1nc2nc(C)c(Cc3cccc(F)c3)c(C)n2n1 | > 100000 nM | 152 nM | 298 nM |
| Cc1c(C(=O)NCCN2CCCC2)cnn1-c1ncc2c(n1)-c1ccccc1SC2 | > 10000 nM | < 14.3 nM | 525 nM |
| CCc1cccc(NC(=O)N2CCN(C(=O)c3nc(-c4ccccc4)nc(C)c3C(=O)OC(C)C)CC2C)c1 (centres undefined) | > 10000 nM | < 14.1 nM | 719 nM |
| C[n+]1c(/C=C\c2ccc(F)cc2)ccc2ccccc21 | > 10000 nM | 14.2 nM | 274 nM |
| Fc1ccc(C2(CCCSc3nnc4c(n3)[nH]c3ccccc34)OCCO2)cc1 | > 100000 nM | 141 nM | 400 nM |
| CC(c1nc2ccc(Cl)cc2c(=O)n1C)N1CCN(S(=O)(=O)c2cccc3ccccc23)CC1 (centres undefined) | > 100000 nM | 140 nM | 147 nM |
| C=C[C@H]1CN2CC[C@H]1C[C@H]2[C@H](OC(=O)c1cccc([N+](=O)[O-])c1)c1ccnc2ccccc12 | > 10000 nM | < 14.5 nM | 396 nM |
| COc1ccc(-c2c[n+](CC(=O)c3ccc(Cl)cc3)c3n2CCC3)cc1 | > 100000 nM | 150 nM | 641 nM |

| Structure (SMILES) | CC50 [1] | EC50 (Plasmodium falciparum [2]) | EC50 (Plasmodium falciparum [3]) |
| --- | --- | --- | --- |
| CN(C)c1ccc(NC(=O)C2C3C=CC(O3)C2C(=O)O)cc1 (centres undefined) | 32800 nM | 47.7 nM | 120 nM |
| O=S(=O)(c1ccc(Cl)cc1)N1CCN(C(=S)NCC2CCCO2)CC1 (centres undefined) | > 100000 nM | 149 nM | 653 nM |
| COCC(=O)Oc1ccccc1-c1nc2cc(C)ccn2c1NC(C)(C)CC(C)(C)C | > 6200 nM | < 9.15 nM | 799 nM |
| CCOC(=O)C1=C(N)N(c2cccc([N+](=O)[O-])c2)C2=C(C(=O)CC(C)(C)C2)C1c1ccc(Br)cc1 (centres undefined) | > 100000 nM | 150 nM | 1260 nM |
| O=C1CC(C(=O)N2CCC(c3nc(-c4cccnc4)ncc3-c3ccccc3)CC2)c2ccccc21 (centres undefined) | > 100000 nM | 150 nM | 459 nM |
| CC(CNC(=O)c1cn(C2CCCCC2)cc(C(=O)NC(C)(C)C)c1=O)c1ccccc1 (centres undefined) | > 10000 nM | < 15 nM | 174 nM |
| CCOC(=O)C1=C(CC)NC2=C(C(=O)CC(C)(C)C2)C1c1ccccc1F (centres undefined) | > 100000 nM | 151 nM | 459 nM |
| c1cc(-c2cccc3cccnc23)nc(N2CCN(CCN3CCCC3)CC2)c1 | 70100 nM | 103 nM | 58.4 nM |
| COc1cc2nc(NCc3cccnc3)n3nc(-c4ccccc4)nc3c2cc1OC | > 100000 nM | 148 nM | 182 nM |
| COC(=O)C1=C(C)N/C(=C\c2cc(C)n(-c3cc(C)ccc3C)c2C)C1=O | > 10000 nM | 15.1 nM | 12.4 nM |
| CC(C)CN1C(=O)c2ccccc2C(C(=O)Nc2cc(F)ccc2F)C1c1cccs1 (centres undefined) | > 100000 nM | 150 nM | 260 nM |
| COC(=O)c1c(-c2c(Cl)cccc2Cl)noc1NC(=O)NN1CCCCC1 | > 100000 nM | 151 nM | 277 nM |
| O=C(CN1CCN(C(=O)c2ccccc2)CC1)Nc1ccc(-c2nc3cc(NC(=O)CN4CCN(C(=O)c5ccccc5)CC4)ccc3o2)cc1 | > 100000 nM | 146 nM | 235 nM |
| CC(C)CC(N)C(=O)N1CCn2c(nc(-c3ccccc3)c2Nc2ccc3c(c2)OCO3)C1 (centres undefined) | > 79500 nM | 122 nM | 119 nM |
| C=CC1CN2CCC1CC2[C@@H](OC(=O)c1ccc(C(C)(C)C)cc1)c1ccnc2ccc(OC)cc12 (some centres undefined) | 72400 nM | 103 nM | 26 nM |
| O=C1N(Cc2cc3ccccc3s2)CC2CN(Cc3ccsc3)CCN12 (centres undefined) | > 100000 nM | 153 nM | 107 nM |
| COc1cc2c(-c3cc(Br)ccc3O)nc3c(c(Cc4ccccc4)nn3-c3ccccc3)c2cc1OC | > 100000 nM | 145 nM | 146 nM |
| CC(=O)Nc1c(NCc2ccccc2)c2ccccc2sc1=O | > 100000 nM | 154 nM | 505 nM |
| Cc1cc(Cl)c(S(=O)(=O)N2CCCC2)cc1OCC(=O)NC1CCCCC1 | > 100000 nM | 141 nM | 95.6 nM |
| CSc1cccc(NC(=O)C2C3C=CC4(O3)C2C(=O)N(C2CC2)C4C(=O)NC2CCCCC2)c1 (centres undefined) | > 10000 nM | < 14.5 nM | 1750 nM |
| CCN(CC)CCN1C(=O)c2ccccc2NC1c1ccc(Br)cc1 (centres undefined) | 47800 nM | 67.1 nM | 218 nM |
| OC(CNCc1ccccc1)Cn1c2ccc(Br)cc2c2cc(Br)ccc21 (centres undefined) | 9300 nM | 13.5 nM | 312 nM |
| CCc1nc2nc(C)cc(Nc3ccc(C)c(F)c3)n2n1 | > 100000 nM | 140 nM | 248 nM |
| Cc1cc(C)n(-c2cc(NN=Cc3cc(Br)ccc3O)nc(C)n2)n1 | > 100000 nM | 154 nM | 237 nM |
